Patent publication US20080146502A1, “Methods for modulating the sensation of satiety perception and agents useful for same” (Autogen Research Pty Ltd., priority 2004, published 2008)
Converted amounts (≈) assume the structure as drawn.

Tests used:
food intake in rats = test: Food intake in fasted rats after single intragastric gavage; type: in vivo; conditions: for Food Intake: 5 mg/kg in saline, mean ± sem
Procedure: Adult, male rats were fasted for 16 hours then administered with a single intragastric gavage of 1-[beta-[3-(4-Methoxyphenyl)propoxy]-4-methoxyphenethyl]-1H-imidazole.HCl at a dose of 5 mg/kg in saline in a volume of 0.5 ml, or saline alone (0.5 ml). There were 8 animals in each group. Food intake was measured at various timepoints over the following 24 hours.

[1] = tested on: receptor-mediated Ca^2+ entry in stimulated platelets; conditions: cited from earlier work
[2] = tested on: receptor-mediated Ca^2+ entry in neutrophils; conditions: cited from earlier work
[3] = tested on: receptor-mediated Ca^2+ entry in endothelial cells; conditions: cited from earlier work
[4] = cited from earlier work
TRPV channels = conditions: cited from earlier work

## COc1ccc(CCCOC(Cn2ccnc2)c2ccc(OC)cc2)cc1 (stereo not drawn) [1-[β-[3-(4-methoxyphenyl)propoxy]-4-methoxyphenethyl]-1H-imidazole]
Food intake in rats; 5 mg/kg gavage, after 3 h, 5 h, 6 h, 8 h, 9 h, 10 h and 24 h, p<0.10
  food intake, trend vs saline: strong trends for reduced food intake
Food intake in rats; 0.5 h after single intragastric gavage, rats fasted 16 h
  Food Intake: 2.4 ± 0.3 g
Food intake in rats; 1 h after single intragastric gavage, rats fasted 16 h
  Food Intake: 2.8 ± 0.3 g
Food intake in rats; 2 h after single intragastric gavage, rats fasted 16 h
  Food Intake: 2.9 ± 0.3 g
Food intake in rats; 3 h after single intragastric gavage, rats fasted 16 h
  Food Intake: 3.8 ± 0.4 g
Food intake in rats; 4 h after single intragastric gavage, rats fasted 16 h
  Food Intake: 4.9 ± 0.5 g
Food intake in rats; 5 h after single intragastric gavage, rats fasted 16 h
  Food Intake: 5.1 ± 0.5 g
Food intake in rats; 6 h after single intragastric gavage, rats fasted 16 h
  Food Intake: 6.3 ± 0.5 g
Food intake in rats; 7 h after single intragastric gavage, rats fasted 16 h
  Food Intake: 7.4 ± 0.6 g
Food intake in rats; 8 h after single intragastric gavage, rats fasted 16 h
  Food Intake: 8.2 ± 0.6 g
Food intake in rats; 9 h after single intragastric gavage, rats fasted 16 h
  Food Intake: 9.3 ± 0.6 g
Food intake in rats; 10 h after single intragastric gavage, rats fasted 16 h
  Food Intake: 10.3 ± 0.6 g
Food intake in rats; 11 h after single intragastric gavage, rats fasted 16 h
  Food Intake: 11.5 ± 0.6 g
Food intake in rats; 12 h after single intragastric gavage, rats fasted 16 h
  Food Intake: 12.4 ± 0.6 g
Food intake in rats; 24 h after single intragastric gavage, rats fasted 16 h
  Food Intake: 18.4 ± 0.8 g
Food intake in rats; rats fasted 16 h, 5 mg/kg single intragastric gavage in saline vs saline alone, 24 h
  food intake over the period of the study: reduced food intake over the period of the study
[1]
  IC50: 8 to 12 µM
[2]
  inhibition of receptor-mediated Ca^2+ entry: selective inhibitor
[3]
  inhibition of receptor-mediated Ca^2+ entry: selective inhibitor
[4]
  Solubility in water: 30 mg/mL (≈ 81.9 mM)

## N.N.N.N.N.N.N.N.N.N.N.N.N.N.[Cl-].[Cl-].[Cl-].[Cl-].[Cl-].[Cl-].[O-2].[O-2].[Ru+3].[Ru+3].[Ru+4] [Ruthenium Red]
TRPV channels
  block of TRPV channels: blocks all TRPV channels
